Laboratory results: patent US9353082B2, “Pharmaceutical compounds” (BIAL—PORTELA & CA, S.A., priority 2008, dated 2016)

Assays:
FAAH [1] = molecular target: T1, FAAH (Mus musculus, UniProt O08914); assay: In vivo FAAH inhibition after oral dosing, remaining activity in brain homogenate (BRh, central nervous tissue); parameters: species or system NMRI mice; conditions: brain homogenate; for In Vivo BRh 3 mg·kg 8 h (remaining FAAH activity, % of control): 8 h after dosing, low value = strong inhibitor
T1 construct: A fragment of liver, left lung lobe and brain without cerebellum were removed; from tissue; host or cells: male NMRI mice; brain (without cerebellum) and liver homogenates
T1 sequence (O08914 1-579): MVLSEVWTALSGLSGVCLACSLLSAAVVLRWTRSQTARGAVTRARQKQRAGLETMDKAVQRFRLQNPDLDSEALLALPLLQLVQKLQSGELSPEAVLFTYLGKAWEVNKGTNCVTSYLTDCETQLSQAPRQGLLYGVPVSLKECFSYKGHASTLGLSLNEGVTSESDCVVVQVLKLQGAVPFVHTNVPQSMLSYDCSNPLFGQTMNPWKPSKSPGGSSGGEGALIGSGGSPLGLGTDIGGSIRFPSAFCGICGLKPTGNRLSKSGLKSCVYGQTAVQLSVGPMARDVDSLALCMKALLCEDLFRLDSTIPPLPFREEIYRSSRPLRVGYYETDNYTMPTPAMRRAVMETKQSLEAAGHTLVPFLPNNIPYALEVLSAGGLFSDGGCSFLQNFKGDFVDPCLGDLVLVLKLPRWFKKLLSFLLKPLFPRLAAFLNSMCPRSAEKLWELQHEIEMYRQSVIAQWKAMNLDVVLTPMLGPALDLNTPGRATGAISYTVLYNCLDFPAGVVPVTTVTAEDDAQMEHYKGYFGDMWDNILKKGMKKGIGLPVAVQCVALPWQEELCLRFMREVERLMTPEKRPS
How it was run: (§1)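 Male NMRI mice, fasted overnight, got 30 or 3 mg/kg compound orally (0.5% CMC suspension or water) and were compared with vehicle controls. Brain (no cerebellum) and liver homogenates were incubated with 2 μM AEA plus 5 nM 3H-AEA at 37 °C, 10 min for brain and 7 min for liver. Remaining FAAH activity is % of vehicle after blank subtraction.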

FAAH [2] = molecular target: T1, FAAH; assay: In vivo FAAH inhibition after oral dosing, remaining activity in liver homogenate (LVh, peripheral tissue); parameters: species or system NMRI mice; conditions: liver homogenate; for In Vivo LVh 3 mg·kg 8 h (remaining FAAH activity, % of control): 8 h after dosing, low value = strong inhibitor
How it was run: as §1

FAAH [3] = molecular target: T2, FAAH (Rattus norvegicus, UniProt P97612); assay: In vitro FAAH activity in rat brain membranes, 3H-AEA substrate, % of control; type: biochemical, Wistar rats; conditions: low value = strong inhibitor; for In Vitro FAAH activity, 100 nM: 100 nM test compound; for In Vitro FAAH activity, 10 uM: 10 uM test compound; for In Vitro 100 nM (FAAH activity, % of control): rat brain membranes, compound at 100 nM
T2 construct: Frozen brains (without cerebellum) from Wistar rats were used; from tissue; host or cells: Wistar rat brain (without cerebellum), washed membrane pellets
T2 sequence (P97612 1-579): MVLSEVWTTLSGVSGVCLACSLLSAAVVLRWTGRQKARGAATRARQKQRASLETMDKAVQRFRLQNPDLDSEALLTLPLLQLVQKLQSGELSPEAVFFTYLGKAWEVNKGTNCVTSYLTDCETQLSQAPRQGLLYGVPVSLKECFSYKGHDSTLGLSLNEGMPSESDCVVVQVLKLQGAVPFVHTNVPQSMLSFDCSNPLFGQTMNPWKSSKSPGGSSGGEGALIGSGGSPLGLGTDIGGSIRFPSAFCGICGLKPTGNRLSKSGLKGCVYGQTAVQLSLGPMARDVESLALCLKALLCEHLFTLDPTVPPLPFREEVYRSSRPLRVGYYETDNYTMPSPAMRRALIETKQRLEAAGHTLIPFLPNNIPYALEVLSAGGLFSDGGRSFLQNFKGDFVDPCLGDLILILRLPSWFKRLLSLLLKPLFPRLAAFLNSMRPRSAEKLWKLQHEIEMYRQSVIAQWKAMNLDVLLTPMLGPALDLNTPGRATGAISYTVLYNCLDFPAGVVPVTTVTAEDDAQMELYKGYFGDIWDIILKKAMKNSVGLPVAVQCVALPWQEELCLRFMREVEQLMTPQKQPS
How it was run: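 Wistar rat brain membranes (5 μg protein) preincubated 15 min at 37 °C with compound at 10 μM or 0.1 μM (0.1% DMSO), then 2 μM AEA including 3H-AEA with 0.1% BSA, Tris pH 7.6, 10 min. 3H-ethanolamine counted after charcoal stop; % of no-compound control after blank subtraction.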

SMILES	In Vivo BRh 3 mg/kg 8 h, remaining FAAH activity (FAAH [1])	In Vivo LVh 3 mg/kg 8 h, remaining FAAH activity (FAAH [2])	In Vitro FAAH activity, 100 nM (FAAH [3])	In Vivo BRh 30 mg/kg 1 h, remaining FAAH activity (FAAH [1])	In Vivo LVh 30 mg/kg 1 h, remaining FAAH activity (FAAH [2])	In Vitro FAAH activity, 10 uM (FAAH [3])	In Vivo BRh 3 mg·kg 8 h (remaining FAAH activity, % of control) (FAAH [1])	In Vivo LVh 3 mg·kg 8 h (remaining FAAH activity, % of control) (FAAH [2])	In Vitro 100 nM (FAAH activity, % of control) (FAAH [3])
CN(C(=O)n1nnc2ccc(Cl)cc21)c1ccccc1 [Compound 32, 6-chloro-N-methyl-N-phenyl-1H-benzo[d][1,2,3]triazole-1-carboxamide]			0.1 % of control	85.9 % of control	64.9 % of control	0 % of control			
O=C(N1CCc2ccccc2C1)n1nnc2ccccc21 [Compound 50, (1H-benzo[d][1,2,3]triazol-1-yl)(3,4-dihydroisoquinolin-2(1H)-yl)methanone]			0 % of control	32.6 % of control	7.8 % of control				
CN(C(=O)n1nnc2cc(Cl)ccc21)c1ccccc1 [Compound 33, 5-chloro-N-methyl-N-phenyl-1H-benzo[d][1,2,3]triazole-1-carboxamide]			6.2 % of control	82.3 % of control	76.7 % of control	0 % of control			
CN(C(=O)n1cnc(-c2ccc[n+]([O-])c2)c1)C1CCCCC1 [Compound no. 362, 3-(1-(cyclohexyl(methyl)carbamoyl)-1H-imidazol-4-yl)pyridine 1-oxide]							1.6 % of control	1.7 % of control	78.2 % of control
O=C(N1CCN(c2ccccn2)CC1)n1nnc2ccccc21 [Compound 49, (1H-benzo[d][1,2,3]triazol-1-yl)(4-(pyridin-2-yl)piperazin-1-yl)methanone]			0.1 % of control	16.9 % of control	14.9 % of control				
CN(C(=O)n1cnc(-c2ccccc2)c1)C1CCOCC1 [Compound 278, N-methyl-4-phenyl-N-(tetrahydro-2H-pyran-4-yl)-1H-imidazole-1-carboxamide]							1.6 % of control	1.8 % of control	103.5 % of control
CN(C(=O)n1nnc2ccccc21)c1ccc(Cl)cc1 [Compound 63, N-(4-chlorophenyl)-N-methyl-1H-benzo[d][1,2,3]triazole-1-carboxamide]			12.6 % of control	57 % of control	49.7 % of control				
CN(Cc1ccccc1)C(=O)n1nnc2ccccc21 [Compound 53, N-benzyl-N-methyl-1H-benzo[d][1,2,3]triazole-1-carboxamide]			0 % of control	1.4 % of control	6.3 % of control				
Cc1ccc(OC2CCN(C(=O)n3nnc4ccccc43)CC2)cc1 [Compound 99, (1H-benzo[d][1,2,3]triazol-1-yl)(4-(p-tolyloxy)piperidin-1-yl)methanone]	99.1 % of control	71.4 % of control	0.2 % of control						

The next lines start with results.

In Vivo BRh 3 mg/kg 8 h, remaining FAAH activity (FAAH [1])	In Vivo LVh 3 mg/kg 8 h, remaining FAAH activity (FAAH [2])	In Vitro FAAH activity, 100 nM (FAAH [3])	In Vivo BRh 30 mg/kg 1 h, remaining FAAH activity (FAAH [1])	In Vivo LVh 30 mg/kg 1 h, remaining FAAH activity (FAAH [2])	In Vitro FAAH activity, 10 uM (FAAH [3])	SMILES	In Vivo BRh 3 mg·kg 8 h (remaining FAAH activity, % of control) (FAAH [1])	In Vivo LVh 3 mg·kg 8 h (remaining FAAH activity, % of control) (FAAH [2])	In Vitro 100 nM (FAAH activity, % of control) (FAAH [3])
68.1 % of control	40.5 % of control	0.2 % of control				O=C(N1CCC(CCc2ccccc2)CC1)n1nnc2ccccc21 [Compound 100, (1H-benzo[d][1,2,3]triazol-1-yl)(4-phenethylpiperidin-1-yl)methanone]			
56.4 % of control	31.9 % of control	78.1 % of control				COc1cc(-c2cn(C(=O)N3COCC3(C)C)cn2)ccc1O [Compound 228, (4,4-dimethyloxazolidin-3-yl)(4-(4-hydroxy-3-methoxyphenyl)-1H-imidazol-1-yl)methanone]			
98.3 % of control	89.9 % of control	81 % of control			109 % of control	Cc1c(-c2ccccc2)ncn1C(=O)N(C)C1CCCCC1 [Compound 254, N-cyclohexyl-N,5-dimethyl-4-phenyl-1H-imidazole-1-carboxamide]			
90.6 % of control	15.8 % of control	0.4 % of control				CN(C(=O)n1cnc(-c2cccc(-c3ccc(C(N)=O)cc3)c2)c1)C1CCCCC1 [Compound 245, 4-(4′-carbamoylbiphenyl-3-yl)-N-cyclohexyl-N-methyl-1H-imidazole-1-carboxamide]			
9.1 % of control	5.7 % of control	15.7 % of control				C[C@@H](c1ccccc1)N(C)C(=O)n1nnc2ccccc21 [Compound 195, (S)—N-methyl-N-(1-phenylethyl)-1H-benzo[d][1,2,3]triazole-1-carboxamide]			
102.9 % of control	109.9 % of control	0.1 % of control				O=C(N1CCC(c2ccncc2)CC1)n1nnc2ccccc21 [Compound 114, (1H-benzo[d][1,2,3]triazol-1-yl)(4-(pyridin-4-yl)piperidin-1-yl)methanone]			
67.9 % of control	2.8 % of control	1.2 % of control				CN(C(=O)n1cnc(-c2cccc(-c3cccc(C(N)=O)c3)c2)c1)C1CCCCC1 [Compound 238, 4-(3′-carbamoylbiphenyl-3-yl)-N-cyclohexyl-N-methyl-1H-imidazole-1-carboxamide]			
99.8 % of control	70.1 % of control	101.5 % of control				CC1(C)COCN1C(=O)n1cnc(-c2cccc(Oc3ccc(C(N)=O)cc3)c2)n1 [Compound 209, 4-(3-(1-(4,4-dimethyloxazolidine-3-carbonyl)-1H-1,2,4-triazol-3-yl)phenoxy)benzamide]			
111.5 % of control	107.3 % of control	0.1 % of control				O=C(N1CCN(C2CCCCC2)CC1)n1nnc2ccccc21 [Compound 127, (1H-benzo[d][1,2,3]triazol-1-yl)(4-cyclohexylpiperazin-1-yl)methanone]			
